Assay results as given in patent US8952024B2, “Herbicidal pyrimidone derivatives” (E I du Pont de Nemours and Company, priority 2009, dated 2015).

How the values were obtained:
Format in all cases: in vivo
[1] = test system: barnyardgrass (Echinochloa crus-galli); test: Test A pre-/postemergence plant response
Text: (§1) Seeds of barnyardgrass (Echinochloa crus-galli), large crabgrass (Digitaria sanguinalis), giant foxtail (Setaria faberii), morningglory (Ipomoea spp.), pigweed (Amaranthus retroflexus), velvetleaf (Abutilon theophrasti), wheat (Triticum aestivum) and corn (Zea mays) were planted into a blend of loam soil and sand and treated preemergence with a directed soil spray using test chemicals formulated in a non-phytotoxic solvent mixture which included a surfactant. At the same time these species were also treated with postemergence applications of test compounds formulated in the same manner.
(§2) Plants ranged in height from two to ten cm and were in the one- to two-leaf stage for the postemergence treatment. Treated plants and untreated controls were maintained in a greenhouse for approximately ten days, after which time all treated plants were compared to untreated controls and visually evaluated for injury. Plant response ratings, summarized in Table A, are based on a 0 to 100 scale where 0 is no effect and 100 is complete control. A dash (-) response means no test result.

corn (Zea mays) = test: Test A pre-/postemergence plant response
Text: as §1, §2

[2] = test system: giant foxtail (Setaria faberii); test: Test A pre-/postemergence plant response
Text: as §1, §2

[3] = test system: large crabgrass (Digitaria sanguinalis); test: Test A pre-/postemergence plant response
Text: as §1, §2

[4] = test system: morningglory (Ipomoea spp.); test: Test A pre-/postemergence plant response
Text: as §1, §2

[5] = test system: pigweed (Amaranthus retroflexus); test: Test A pre-/postemergence plant response
Text: as §1, §2

[6] = test system: velvetleaf (Abutilon theophrasti); test: Test A pre-/postemergence plant response
Text: as §1, §2

[7] = test system: wheat (Triticum aestivum); test: Test A pre-/postemergence plant response
Text: as §1, §2

[8] = test system: barnyardgrass (Echinochloa crus-galli); test: Test B flooded paddy test; conditions: for Plant response rating, Flood, Barnyardgrass: 250 g ai/ha, flooded paddy test, visual rating on 0 to 100 scale (0 no effect, 100 complete control) after 13 to 15 days; for Plant response rating, Barnyardgrass: Flood (flooded paddy test), 13 to 15 days
Summary of the method: (§3)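 Visual scores run from 0 (no effect) to 100 (complete control), assigned by comparison with controls 13 to 15 days after treatment. Test compounds went straight into water standing 3 cm above the soil, around plants at the 2-leaf stage kept in a greenhouse.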

[9] = test system: ducksalad (Heteranthera limosa); test: Test B flooded paddy test; conditions: for Plant response rating, Flood, Ducksalad: 250 g ai/ha, flooded paddy test, visual rating on 0 to 100 scale (0 no effect, 100 complete control) after 13 to 15 days; for Plant response rating, Ducksalad: Flood (flooded paddy test), 13 to 15 days
Summary of the method: as §3

rice (Oryza sativa) = test: Test B flooded paddy test; conditions: for Plant response rating, Flood, Rice: 250 g ai/ha, flooded paddy test, visual rating on 0 to 100 scale (0 no effect, 100 complete control) after 13 to 15 days; for Plant response rating, Rice: Flood (flooded paddy test), 13 to 15 days
Summary of the method: as §3

[10] = test system: umbrella sedge (Cyperus difformis); test: Test B flooded paddy test; conditions: for Plant response rating, Flood, Sedge, Umbrella: 250 g ai/ha, flooded paddy test, visual rating on 0 to 100 scale (0 no effect, 100 complete control) after 13 to 15 days; for Plant response rating, Sedge, Umbrella: Flood (flooded paddy test), 13 to 15 days
Summary of the method: as §3

[11] = Postemergence, 125 g ai/ha, 0 to 100 scale where 0 is no effect and 100 is complete control
[12] = Postemergence, 500 g ai/ha, 0 to 100 scale, 0 = no effect, 100 = complete control, approx. ten days
[13] = Preemergence, 125 g ai/ha, 0 to 100 scale, 0 = no effect, 100 = complete control
[14] = Preemergence, 500 g ai/ha, visual injury, 0 to 100 scale (0 no effect, 100 complete control), approx. ten days
[15] = 62 g ai/ha, scale of 0 to 100 where 0 is no effect and 100 is complete control
[16] = 125 g ai/ha, scale 0 to 100, 0 is no effect, 100 is complete control
[17] = Flood, 31 g ai/ha, scale 0 to 100 (0 no effect, 100 complete control)

CCCn1c(-c2ccn(C)n2)ncc(C(=O)C2=C(O)CCCC2=O)c1=O [Compound 135]
10: Plant response rating, Barnyardgrass [1, 11]
50: Plant response rating, Morningglory [4, 14]
90: Plant response rating, Morningglory [4, 12] | Plant response rating, Pigweed [5, 12]
20: Plant response rating, Morningglory [4, 13]
70: Plant response rating, Crabgrass, Large [3, 12] | Plant response rating, Morningglory [4, 11] | Plant response rating, Velvetleaf [6, 14]
80: Plant response rating, Pigweed [5, 11] | Plant response rating, Pigweed [5, 14]
30: Plant response rating, Barnyardgrass [1, 12] | Plant response rating, Ducksalad [9, 15]
100: Plant response rating, Velvetleaf [6, 11] | Plant response rating, Velvetleaf [6, 12]
0: Plant response rating, Barnyardgrass [1, 13] | Plant response rating, Barnyardgrass [1, 14] | Plant response rating, Corn (corn (Zea mays); [11]) | Plant response rating, Corn (corn (Zea mays); [12]) | Plant response rating, Corn (corn (Zea mays); [13]) | Plant response rating, Corn (corn (Zea mays); [14]) | Plant response rating, Foxtail, Giant [2, 11] | Plant response rating, Foxtail, Giant [2, 12] | Plant response rating, Foxtail, Giant [2, 13] | Plant response rating, Foxtail, Giant [2, 14] | Plant response rating, Crabgrass, Large [3, 13] | Plant response rating, Wheat [7, 11] | Plant response rating, Wheat [7, 12] | Plant response rating, Wheat [7, 13] | Plant response rating, Wheat [7, 14] | Plant response rating, Flood, Barnyardgrass [8] | Plant response rating, Barnyardgrass [8, 15] | Plant response rating, Flood, Rice (rice (Oryza sativa)) | Plant response rating, Rice (rice (Oryza sativa); [15]) | Plant response rating, Flood, Sedge, Umbrella [10] | Plant response rating, Sedge, Umbrella [10, 15]
40: Plant response rating, Crabgrass, Large [3, 11] | Plant response rating, Crabgrass, Large [3, 14] | Plant response rating, Pigweed [5, 13] | Plant response rating, Velvetleaf [6, 13] | Plant response rating, Flood, Ducksalad [9]

COCCn1c(-c2ccn(C)n2)ncc(C(=O)C2=C(O)CCCC2=O)c1=O [Compound 136]
60: Plant response rating, Barnyardgrass [1, 14] | Plant response rating, Crabgrass, Large [3, 14] | Plant response rating, Morningglory [4, 14]
100: Plant response rating, Morningglory [4, 11] | Plant response rating, Morningglory [4, 12] | Plant response rating, Pigweed [5, 12] | Plant response rating, Pigweed [5, 14] | Plant response rating, Velvetleaf [6, 11] | Plant response rating, Velvetleaf [6, 12] | Plant response rating, Velvetleaf [6, 14]
20: Plant response rating, Crabgrass, Large [3, 13] | Plant response rating, Barnyardgrass [8, 15] | Plant response rating, Flood, Rice (rice (Oryza sativa))
0: Plant response rating, Barnyardgrass [1, 13] | Plant response rating, Corn (corn (Zea mays); [11]) | Plant response rating, Corn (corn (Zea mays); [12]) | Plant response rating, Corn (corn (Zea mays); [13]) | Plant response rating, Corn (corn (Zea mays); [14]) | Plant response rating, Foxtail, Giant [2, 13] | Plant response rating, Foxtail, Giant [2, 14] | Plant response rating, Wheat [7, 11] | Plant response rating, Wheat [7, 12] | Plant response rating, Wheat [7, 13] | Plant response rating, Wheat [7, 14]
80: Plant response rating, Barnyardgrass [1, 12] | Plant response rating, Crabgrass, Large [3, 11] | Plant response rating, Pigweed [5, 11] | Plant response rating, Pigweed [5, 13]
50: Plant response rating, Foxtail, Giant [2, 12] | Plant response rating, Flood, Sedge, Umbrella [10]
70: Plant response rating, Velvetleaf [6, 13]
30: Plant response rating, Barnyardgrass [1, 11] | Plant response rating, Foxtail, Giant [2, 11] | Plant response rating, Morningglory [4, 13]
45: Plant response rating, Sedge, Umbrella [10, 15]
25: Plant response rating, Flood, Barnyardgrass [8]
90: Plant response rating, Crabgrass, Large [3, 12]
55: Plant response rating, Ducksalad [9, 15]
75: Plant response rating, Flood, Ducksalad [9]
15: Plant response rating, Rice (rice (Oryza sativa); [15])

COCCn1c(-c2cccc(Br)c2)ncc(C(=O)C2=C(O)CCCC2=O)c1=O [Compound 139]
30: Plant response rating, Flood, Rice (rice (Oryza sativa))
100: Plant response rating, Crabgrass, Large [3, 14] | Plant response rating, Morningglory [4, 11] | Plant response rating, Morningglory [4, 12] | Plant response rating, Pigweed [5, 12] | Plant response rating, Pigweed [5, 14] | Plant response rating, Velvetleaf [6, 11] | Plant response rating, Velvetleaf [6, 12]
50: Plant response rating, Foxtail, Giant [2, 11]
0: Plant response rating, Corn (corn (Zea mays); [13]) | Plant response rating, Morningglory [4, 13] | Plant response rating, Wheat [7, 13]
90: Plant response rating, Barnyardgrass [1, 14] | Plant response rating, Crabgrass, Large [3, 13] | Plant response rating, Pigweed [5, 11] | Plant response rating, Velvetleaf [6, 14] | Plant response rating, Flood, Ducksalad [9]
20: Plant response rating, Corn (corn (Zea mays); [11]) | Plant response rating, Corn (corn (Zea mays); [14]) | Plant response rating, Foxtail, Giant [2, 13] | Plant response rating, Wheat [7, 11]
60: Plant response rating, Barnyardgrass [1, 11] | Plant response rating, Velvetleaf [6, 13]
35: Plant response rating, Flood, Barnyardgrass [8]
80: Plant response rating, Barnyardgrass [1, 12] | Plant response rating, Foxtail, Giant [2, 12] | Plant response rating, Crabgrass, Large [3, 12] | Plant response rating, Morningglory [4, 14]
70: Plant response rating, Foxtail, Giant [2, 14] | Plant response rating, Crabgrass, Large [3, 11] | Plant response rating, Pigweed [5, 13] | Plant response rating, Sedge, Umbrella [10, 15]
75: Plant response rating, Ducksalad [9, 15]
40: Plant response rating, Barnyardgrass [1, 13] | Plant response rating, Corn (corn (Zea mays); [12]) | Plant response rating, Wheat [7, 12]
85: Plant response rating, Flood, Sedge, Umbrella [10]
10: Plant response rating, Wheat [7, 14] | Plant response rating, Barnyardgrass [8, 15] | Plant response rating, Rice (rice (Oryza sativa); [15])

COCCCn1c(-c2cccc(Cl)c2)ncc(C(=O)C2=C(O)CCCC2=O)c1=O [Compound 143]
65: Plant response rating, Flood, Sedge, Umbrella [10]
80: Plant response rating, Foxtail, Giant [2, 12] | Plant response rating, Ducksalad [9, 15] | Plant response rating, Ducksalad [9, 16] | Ducksalad plant response rating [9, 17]
10: Plant response rating, Corn (corn (Zea mays); [11]) | Plant response rating, Foxtail, Giant [2, 13] | Plant response rating, Morningglory [4, 13] | Plant response rating, Wheat [7, 12]
100: Plant response rating, Morningglory [4, 12] | Plant response rating, Velvetleaf [6, 11] | Plant response rating, Velvetleaf [6, 12] | Plant response rating, Velvetleaf [6, 14]
40: Plant response rating, Barnyardgrass [1, 13]
60: Plant response rating, Foxtail, Giant [2, 11]
90: Plant response rating, Barnyardgrass [1, 12] | Plant response rating, Barnyardgrass [1, 14] | Plant response rating, Crabgrass, Large [3, 12] | Plant response rating, Crabgrass, Large [3, 14] | Plant response rating, Morningglory [4, 11] | Plant response rating, Pigweed [5, 12] | Plant response rating, Pigweed [5, 14] | Plant response rating, Flood, Ducksalad [9]
20: Plant response rating, Corn (corn (Zea mays); [12]) | Plant response rating, Flood, Barnyardgrass [8]
0: Plant response rating, Corn (corn (Zea mays); [13]) | Plant response rating, Corn (corn (Zea mays); [14]) | Plant response rating, Wheat [7, 11] | Plant response rating, Wheat [7, 13] | Plant response rating, Wheat [7, 14] | Plant response rating, Barnyardgrass [8, 15] | Plant response rating, Barnyardgrass [8, 16] | Barnyardgrass plant response rating [8, 17] | Plant response rating, Flood, Rice (rice (Oryza sativa)) | Plant response rating, Rice (rice (Oryza sativa); [15]) | Plant response rating, Rice (rice (Oryza sativa); [16]) | Rice plant response rating (rice (Oryza sativa); [17]) | Plant response rating, Sedge, Umbrella [10, 15] | Plant response rating, Sedge, Umbrella [10, 16] | Sedge, Umbrella plant response rating [10, 17]
50: Plant response rating, Crabgrass, Large [3, 13]
70: Plant response rating, Barnyardgrass [1, 11] | Plant response rating, Foxtail, Giant [2, 14] | Plant response rating, Crabgrass, Large [3, 11] | Plant response rating, Morningglory [4, 14] | Plant response rating, Pigweed [5, 11] | Plant response rating, Pigweed [5, 13] | Plant response rating, Velvetleaf [6, 13]
